For the assay, the target named is ΔF508-NBD1 (CFTR nucleotide binding domain 1) (Homo sapiens, UniProt P13569, F494N/DEL508-508). Nature of the assay: SPR. (SPR reads the build-up and loss of mass on a sensor chip optically.)

Here are results for 1 molecule from publication PMC6301090 (Nature medicine, 2018).

pKd: −log10 of the molar value.

Consider `O=C(O)Cc1c(Br)[nH]c2ccccc12` [BIA, bromoindole-3-acetic acid], for which the pKd (usually the negative decadic logarithm of the Kd, by convention in mol/L) was < 3.00.
